Results as given in PubChem BioAssay (NCI).
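GI50: concentration for 50% inhibition of growth. TGI: total growth inhibition.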

Key:
Experiment in all cases: growth of human tumour cells (NCI), 384-well format
BT-549 breast = test system: BT-549 breast
HT29 colon = test system: HT29 colon
EKVX NSCLC = test system: EKVX NSCLC
KM12 colon = test system: KM12 colon
UACC-257 melanoma = test system: UACC-257 melanoma
NCI-H322M lung = test system: NCI-H322M lung
SR leukemia = test system: SR leukemia
MDA-MB-468 breast = test system: MDA-MB-468 breast
SK-OV-3 ovarian = test system: SK-OV-3 ovarian
MOLT-4 leukemia = test system: MOLT-4 leukemia
UACC-62 melanoma = test system: UACC-62 melanoma
HS 578T breast = test system: HS 578T breast
NCI-H226 lung = test system: NCI-H226 lung
MDA-MB-435 melanoma = test system: MDA-MB-435 melanoma
HCC-2998 colon = test system: HCC-2998 colon
NCI/ADR-RES ovarian = test system: NCI/ADR-RES ovarian
CCRF-CEM leukemia = test system: CCRF-CEM leukemia
SF-539 CNS = test system: SF-539 CNS
CAKI-1 renal = test system: CAKI-1 renal
T-47D breast = test system: T-47D breast
OVCAR-8 ovarian = test system: OVCAR-8 ovarian
HOP-92 NSCLC = test system: HOP-92 NSCLC
PC-3 prostate = test system: PC-3 prostate
SW-620 colon = test system: SW-620 colon
HL-60(TB) leukemia = test system: HL-60(TB) leukemia
COLO 205 colon = test system: COLO 205 colon
SK-MEL-5 melanoma = test system: SK-MEL-5 melanoma
LOX IMVI melanoma = test system: LOX IMVI melanoma

## COC1CCC(N2C(=O)CNc3ncc(-c4ccc(C(C)(C)O)nc4)nc32)CC1 (stereo unspecified)
BT-549 breast
  GI50: 0.474 µM
  TGI: 7.35 µM
HT29 colon
  GI50: 0.697 µM
  TGI: > 100 µM
EKVX NSCLC
  GI50: 0.53 µM
  TGI: 31.2 µM
KM12 colon
  GI50: 0.474 µM
  TGI: 33.9 µM
UACC-257 melanoma
  GI50: 3.01 µM
  TGI: > 100 µM
NCI-H322M lung
  GI50: 0.28 µM
  TGI: 52.9 µM
SR leukemia
  GI50: 0.016 µM
  TGI: 0.0533 µM
MDA-MB-468 breast
  GI50: 0.344 µM
  TGI: 6.98 µM
SK-OV-3 ovarian
  GI50: 0.28 µM
  TGI: 17.1 µM
MOLT-4 leukemia
  GI50: 0.233 µM
  TGI: 2.11 µM
UACC-62 melanoma
  GI50: 0.237 µM
  TGI: 8.49 µM
HS 578T breast
  GI50: 0.173 µM
  TGI: 0.523 µM
NCI-H226 lung
  GI50: 0.326 µM
  TGI: 7.12 µM
MDA-MB-435 melanoma
  GI50: 0.515 µM
  TGI: 24.2 µM
HCC-2998 colon
  GI50: 2.54 µM
  TGI: 34.8 µM
NCI/ADR-RES ovarian
  GI50: 2.36 µM
  TGI: 32.3 µM
CCRF-CEM leukemia
  GI50: 0.261 µM
  TGI: 10.6 µM
SF-539 CNS
  GI50: 1.27 µM
  TGI: 22.3 µM
CAKI-1 renal
  GI50: 0.215 µM
  TGI: 3.62 µM
T-47D breast
  GI50: 0.0743 µM
  TGI: > 100 µM
OVCAR-8 ovarian
  GI50: 0.693 µM
  TGI: > 100 µM
HOP-92 NSCLC
  GI50: 0.454 µM
  TGI: > 100 µM
PC-3 prostate
  GI50: 0.157 µM
  TGI: 14.6 µM
SW-620 colon
  GI50: 2.58 µM
  TGI: > 100 µM
HL-60(TB) leukemia
  GI50: 2.47 µM
  TGI: 17.1 µM
COLO 205 colon
  GI50: 0.323 µM
  TGI: > 100 µM
SK-MEL-5 melanoma
  GI50: 0.2 µM
  TGI: 2.62 µM
LOX IMVI melanoma
  GI50: 0.587 µM
  TGI: 12.9 µM
